From patent US11179390B2, “Subcutaneous administration of a P2Y12 receptor antagonist” (Idorsia Pharmaceuticals Ltd, priority 2017, dated 2021)
“And” between values parts separate entries of the source, which are not always exact repeats. Equal entries are not always repeated. Structures can show the parent of a compound that is named as a salt.

Legend:
[1] = tested on: ADP-induced AF488-Fibrinogen binding on mouse platelets; assay: AF488-Fibrinogen binding assay on whole blood after subcutaneous administration of P2Y12 receptor antagonists; type: in vivo, mouse (male Balb/c)
Text: In-Vivo Measurements of Time Dependent Platelet Inhibition after Subcutaneous Administration of P2Y12 Receptor Antagonists:
Male Balb/c mice were purchased from Charles River laboratories (Sulzfeld, Germany). All animals were maintained under identical conditions in accordance with the guidelines of the Basel-Landschaft cantonal veterinary office. Husbandry was accomplished in professional animal housing facilities, which provided group-cages, standard diet/water ad libitum, and standard illumination and climate conditions. The technical assistants performed at least one inspection per day. Sufficient time was provided for the animals to be accustomed to the experimental environment. Stress reduction was provided also by enrichment of cages, and providing the possibility to retire to dark housings (taking advantage of the color blindness of albino mice in the red range of the light spectrum). Inside the red housing the animals have the impression of being in the dark, while this housing remains visible to normal human vision.
Compound 1 hydrochloride, 0.2 mg/kg (respectively 5 mL/kg)
Elinogrel, 30 mg/kg (respectively 5 mL/kg)
Cangrelor, 0.2 mg/kg (respectively 5 mL/kg)
After an acclimatization period of at least 7 days, mice were anesthetized with Isoflurane (2-5%). The animals were then placed on a thermostatically-controlled heating table to maintain body temperature at 36-38° C. A polyurethane catheter (BTPU-027) was inserted into the right jugular vein and advanced into the vena cava for infusion of Heparin and to collect blood. […] Therefore Heparin (4000 U/kg/2.5 mL) was intravenously injected to prevent blood from coagulation.
Two minutes after the injection of Heparin, 60 μL of whole blood was collected via the vena cava catheter (baseline). […] 10, 20, 30, 40 and 60 minutes after the subcutaneous injection of the test compounds, 60 μL of whole blood were collected via the vena cava catheter for the fibrinogen binding assay.
(§1) This assay is particularly well adapted for reliable studies of the effect of P2Y12 antagonists on mouse platelets under in vitro and in vivo conditions. The assay allows to measure ADP-induced AF488-Fibrinogen binding on mouse platelets in only 6 μL whole blood and without washing steps.
(§2) Next, 10 μL of AF488-Fibrinogen (to give 0.5 mg/mL final concentration) were added followed by incubation of 5 minutes. To induce AF488-Fibrinogen binding, the platelets were then incubated with 10 μL ADP (to give 20 μM final concentration) for 5 minutes. In addition, an incubation with a platelet specific Allophycocyanin (APC) anti-Mouse CD61 (integrin beta 3) antibody (clone 2C9.G2) was performed for 10 minutes. The platelets were then fixed by addition of 34 μL cold paraformaldehyde solution (to give 0.1% final concentration) and stored at 4° C. for about 20 minutes. The samples were finally diluted with 1.8 mL cold PBS and put on hold at 4° C. for at least 2 hours, time necessary for gently red blood cell lysis, before measuring by flow cytometry.
Flow cytometry was performed using a FACSCanto II instrument (BD Bioscience). The setting of fluorescence compensation was not required due to the use of two different lasers.
Platelets were first detected using the platelet specific fluorescence signal of APC-CD61 (APC-settings for fluorescence emission peak at 660 nm). The platelet population was then gated using forward-scatter (FSC) and side-scatter (SSC) and their FITC-labeled Fibrinogen signal (FITC-settings for fluorescence emission peak at 525 nm) was quantitated as Mean Fluorescence Intensity (MFI) of 5000 platelets. For each sample, the MFI from corresponding nonspecific sample was subtracted.

[2] = tested on: ADP-induced AF488-Fibrinogen binding on platelets; assay: In vitro inhibition of ADP-induced AF488-Fibrinogen binding (nonspecific signal control); type: cell-based; details: Mus musculus, Platelet, 0.25 h; 2 μM final concentration in diluted blood, 15 minutes at RT, 20 μM ADP; prior experiments
Protocol: as §1
as §2, with “The blood was first incubated with 4 μL vehicle or 4 μL Compound 1 hydrochloride (to give 2 μM final concentration in diluted blood) for 15 minutes at RT. This concentration of Compound 1 hydrochloride was determined in prior experiments to inhibit 100% of ADP-induced AF488-Fibrinogen binding on platelets and represents the nonspecific signal. Next,” for “Next,”

CNc1cc2[nH]c(=O)n(-c3ccc(NC(=O)NS(=O)(=O)c4ccc(Cl)s4)cc3)c(=O)c2cc1F [Elinogrel]
Mean Fluorescence Intensities of AF488-Fibrinogen binding to platelets ([1]; 30 mg/kg s.c., 10 min after injection): 4403 MFI and 4712 MFI and 3842 MFI and 3840 MFI | Mean Fluorescence Intensities of AF488-Fibrinogen binding to platelets ([1]; 30 mg/kg s.c., 20 min after injection): 2374 MFI and 3847 MFI and 2177 MFI and 4078 MFI | Mean Fluorescence Intensities of AF488-Fibrinogen binding to platelets ([1]; 30 mg/kg s.c., 40 min after injection): 1644 MFI and 1768 MFI and 1652 MFI and 2619 MFI | Mean Fluorescence Intensities of AF488-Fibrinogen binding to platelets ([1]; 30 mg/kg s.c., 60 min after injection): 2034 MFI and 1503 MFI and 1515 MFI and 2191 MFI | Mean Fluorescence Intensities of AF488-Fibrinogen binding to platelets ([1]; 30 mg/kg s.c., time 0 min (baseline, before injection)): 8124 MFI and 5370 MFI and 7045 MFI and 7097 MFI

CSCCNc1nc(SCCC(F)(F)F)nc2c1ncn2[C@@H]1O[C@H](COP(=O)(O)OP(=O)(O)C(Cl)(Cl)P(=O)(O)O)[C@@H](O)[C@H]1O [Cangrelor]
Mean Fluorescence Intensities of AF488-Fibrinogen binding to platelets ([1]; 0.2 mg/kg s.c., 10 min after injection): 1596 MFI and 1628 MFI and 2550 MFI | Mean Fluorescence Intensities of AF488-Fibrinogen binding to platelets ([1]; 0.2 mg/kg s.c., 20 min after injection): 713 MFI and 1364 MFI and 1012 MFI | Mean Fluorescence Intensities of AF488-Fibrinogen binding to platelets ([1]; 0.2 mg/kg s.c., 40 min after injection): 765 MFI and 732 MFI and 921 MFI | Mean Fluorescence Intensities of AF488-Fibrinogen binding to platelets ([1]; 0.2 mg/kg s.c., 60 min after injection): 1048 MFI and 682 MFI and 961 MFI | Mean Fluorescence Intensities of AF488-Fibrinogen binding to platelets ([1]; 0.2 mg/kg s.c., time 0 min (baseline, before injection)): 6200 MFI and 7453 MFI and 5476 MFI

CCCCOC(=O)N1CCN(C(=O)[C@H](CP(=O)(O)O)NC(=O)c2cc(N3CC[C@H](OC)C3)nc(-c3ccccc3)n2)CC1 [Compound 1 hydrochloride, ((R)-3-(4-(butoxycarbonyl)piperazin-1-yl)-2-(6-((S)-3-methoxypyrrolidin-1-yl)-2-phenylpyrimidine-4-carboxamido)-3-oxopropyl)phosphonic acid hydrochloride]
inhibition at 2 µM [2]: 100%
